{"source": "patent US12064425B2", "about": "“Compositions and methods for targeting a viral infection” (priority 2018, dated 2024)", "key": {"HIV-1 Env": {"molecular_target": "HIV-1 Env (Human immunodeficiency virus type 1, UniProt Q71014)"}, "HIV-1 Env pseudoviruses": {"system": "HIV-1 Env pseudoviruses", "format": "cell-based"}, "[1]": {"system": "gp41-inter binding to 2F5 Fab", "parameters": "species or system HIV-1"}, "2F5 Fab": {"system": "2F5 Fab", "assay": "SPR analysis of compound binding to 2F5 Fab"}, "[2]": {"system": "gp41-inter binding to 240D Fab", "parameters": "species or system HIV-1"}, "gp41-inter": {"molecular_target": "gp41-inter (Human immunodeficiency virus type 1, UniProt Q71014)", "format": "binding, HIV-1"}, "[3]": {"system": "Env-expressing cells, CD4- and CCR5-expressing cells"}, "[4]": {"molecular_target": "92UG037.8 HIV-1 Env W666A (Human immunodeficiency virus type 1, UniProt Q71014, W659A)", "format": "cell-based"}}, "note": "“Also recorded” adds a separate entry of the source. Like-named read-outs stand apart in the source and are kept apart here."}
{"smiles": "Nc1c2c([n+](CCCCCCCCCC[n+]3c4c(c(N)c5ccccc53)CCC4)c3ccccc13)CCC2", "note": "[Compound S2C3]", "values": [{"measurement": "inhibition potency in the cell-cell fusion assay compared to dequalinium", "setting": "HIV-1 Env", "result": "significant improvement"}, {"measurement": "potency of inhibition of viral infectivity compared to dequalinium", "setting": "HIV-1 Env pseudoviruses", "result": "improvement in potency"}, {"measurement": "competition with 2F5 for binding to gp41-inter", "setting": "[1]", "result": "competed with 2F5 for binding to gp41-inter"}, {"measurement": "binding to 2F5", "setting": "2F5 Fab", "result": "no binding"}, {"measurement": "competition with 240D Fab for binding to gp41-inter", "setting": "[2]", "result": "not with a cluster I antibody, 240D Fab"}]}
{"smiles": "Nc1cc[n+](CCCCCCCCCC[n+]2ccc(N)c3cc(Br)ccc32)c2ccc(Br)cc12", "note": "[Compound S2C7]", "values": [{"measurement": "inhibition potency in the cell-cell fusion assay compared to dequalinium", "setting": "HIV-1 Env", "result": "modestly improved potency"}]}
{"smiles": "Cc1cc(N)cc[n+]1CCCCCCCCCC[n+]1ccc(N)cc1C", "note": "[Compound S2C9]", "values": [{"measurement": "inhibition potency in the cell-cell fusion assay compared to dequalinium", "setting": "HIV-1 Env", "result": "significant decreases in potency"}]}
{"smiles": "c1ccc2c(c1)ccc[n+]2CCCCCCCCCC[n+]1cccc2ccccc21", "note": "[Compound S2C10]", "values": [{"measurement": "inhibition potency in the cell-cell fusion assay compared to dequalinium", "setting": "HIV-1 Env", "result": "significant decreases in potency"}, {"measurement": "binding to gp41-inter (in words)", "setting": "gp41-inter", "result": "no binding"}]}
{"smiles": "Nc1cc[n+](CCCCCCCCCC[n+]2ccc(N)c3ccccc32)c2ccccc12", "note": "[Compound S2C1]", "values": [{"measurement": "inhibition potency in the cell-cell fusion assay compared to dequalinium", "setting": "HIV-1 Env", "result": "significant decreases in potency"}]}
{"smiles": "Cc1cc(N)c2ccccc2[n+]1CCCCCCCCCC[n+]1c(C)cc(N)c2ccccc21", "note": "[dequalinium, quinolinium,1,1′-(1,10-decanediyl)-bis(4-amino-2-methyldiiodide)]", "values": [{"measurement": "inhibition of cell-cell fusion mediated by Envs of primary HIV-1 isolates of different clades", "setting": "HIV-1 Env", "result": "can also target Envs from multiple primary HIV-1 isolates of different clades; also recorded: specifically inhibited cell-cell fusion"}, {"measurement": "inhibition of HIV-1 infectivity versus MuLV control", "setting": "HIV-1 Env pseudoviruses", "result": "greater inhibition to several HIV-1 isolates"}, {"measurement": "cytotoxicity in the viral infectivity assay", "setting": "TZM.bl cells", "result": "more cytotoxicity than in the cell-cell fusion assay"}, {"measurement": "binding to 2F5", "setting": "2F5 Fab; SPR", "result": "no binding"}, {"measurement": "cytotoxicity by an assay measuring ATP concentration", "setting": "[3]", "result": "minimal level of cytotoxicity"}, {"measurement": "resistance of mutant Env to inhibition of cell-cell fusion versus wildtype Env", "setting": "[4]", "result": "significantly more resistant"}]}
{"smiles": "Cc1cc(N)c2ccccc2n1", "note": "[4-aminoquinaldine]", "values": [{"measurement": "activity in blocking HIV-1 Env mediated cell-cell fusion (in words)", "setting": "HIV-1 Env", "result": "no activity"}]}
